# According to patent publication US9617264B2, “2,7-diazaspiro[3.5]nonane compounds” (REMYND NV, priority 2014, dated 2017):
# Tested on: M17_3SYN cells
# Test: Paraquat-induced cytotoxicity (LDH) in α-synuclein over-expressing M17_3SYN neuroblastoma cells
# Type: cell-based
# Conditions: Homo sapiens, Neuroblastoma cell, 48 h, 6 mM Paraquat, 2 days, LDH toxicity inhibition, read-out: SYN EC50
# Description: A α-synuclein expression plasmid was constructed by subcloning the NcoI/XhoI fragment from 212T-SYN(WT) (Griffioen et al., Biochem Biophys Acta (2006) 1762(3):312-318) containing the cDNA of human wild type α-synuclein correspondingly into a standard mammalian expression vector pcDNA3.1 resulting in plasmid pcDNA3.1-SYNwt. Plasmids pcDNA3.1 and pcDNA3.1-SYNwt were transfected into human neuroblastoma cells (BE-M17; ATCC No. CRL-2267™) using lipofectamine reagent and subsequently, independent clonal cell lines with the plasmids stably integrated into the genome were selected by antibiotic resistance selection (Geneticin (G418)), resulting in cell lines M17.pcDNA3 and M17_3SYN. Overexpression of α-synuclein in the M17_3SYN cell line was confirmed by Western blot analysis.
# Due to the high levels of α-synuclein, M17_3SYN cells were sensitive to paraquat, a well-known risk factor Parkinson's disease and of synuclein-dependent neuronal degeneration. Cytotoxicity of cells was measured by quantification of lactate dehydrogenase (LDH) levels. In dead cells, LDH leaked out of the cells into the medium due to a loss of plasma-membrane integrity.
# Three days preceding the experiment, primary pre-cultures of M17.pcDNA3 (as possible control) and M17_3SYN cells were prepared, starting from a stock culture, at a density of 20.000-40.000 cells/cm2 in culture medium (Opti-MEM® Reduced Serum Medium with Phenol Red (Invitrogen, Cat. 31985-047) supplemented with 10% FCS, 1 mM sodium pyruvate, 1×NEAA, 500 μg/ml G418 and 0.5× antibiotic/antimycotic (ABAM)). 3 days later these primary pre-cultures were used as a starting point to make secondary pre-cultures at a density of 50.000-100.000 cells/cm^2. At the day of the experiment these secondary precultures were diluted to ˜0.5·10^6 cells/ml in detection medium (Opti-MEM® Reduced-Serum Medium without Phenol Red (Invitrogen, Cat. 11085-021) supplemented with 10% FCS, 1 mM sodium pyruvate, 1×NEAA, 500 μg/ml G418 and 0.5×ABAM) and 60 μL of this suspension was dispensed per well into a 96-well microtiter plate. After 3 hours of incubation at 37° C./5% CO2 an equal volume of detection medium containing a final concentration of 6 mM Paraquat was added and subsequently incubated for 2 days at 37° C./5% CO2. Then LDH activity was determined using the Promega Cytotox 96 Non-Radioactive cytotoxicity assay (Promega, Cat. G1780), according to the manufacturer's instructions. Cytotoxicity was defined as the ratio of LDH relative to the total LDH in the cells and supernatant.
# The assay described above using the M17_3SYN cell line allowed screening compounds for their ability to decrease cytotoxicity in PQ-challenged cells. Compounds of the invention were tested for their ability to decrease toxicity at different concentrations, ranging from low non-effective concentrations to high effective concentrations. Afterwards, a dose-dependent inhibition curve was used to calculate the EC50. A compound was considered to be active in this test when it inhibited toxicity by more than 20% relative to untreated M17_3SYN cells at a concentration of […] or lower.
smiles,measurement,value
"COc1ccc(S(=O)(=O)N2CCC3(CC2)CN(S(=O)(=O)c2ccc(F)cc2)C3)cc1 [Cmpd002, 2-((4-Fluorophenyl)sulfonyl)-7-((4-methoxyphenyl)sulfonyl)-2,7-diazaspiro[3.5]nonane]",EC50,25.8 nM
"COc1ccc(S(=O)(=O)N2CCC3(CC2)CN(C(=O)C(C)(C)c2ccccc2)C3)cc1 [Cmpd013, 1-(7-((4-Methoxyphenyl)sulfonyl)-2,7-diazaspiro[3.5]nonan-2-yl)-2-methyl-2-phenylpropan-1-one]",EC50,44.4 nM
"COc1ccc(S(=O)(=O)N2CCC3(CC2)CN(C(=O)C(C)(C)c2cccc(OC)c2)C3)cc1 [Cmpd016, 2-(3-Methoxyphenyl)-1-(7-((4-methoxyphenyl)sulfonyl)-2,7-diazaspiro[3.5]nonan-2-yl)-2-methylpropan-1-one]",EC50,29.3 nM
"COc1ccc(S(=O)(=O)N2CCC3(CC2)CN(c2nc(Cc4ccc(Cl)cc4)ns2)C3)cc1 [Cmpd032, 3-(4-Chlorobenzyl)-5-(7-((4-methoxyphenyl)sulfonyl)-2,7-diazaspiro[3.5]nonan-2-yl)-1,2,4-thiadiazole]",EC50,170 nM
"COc1ccc(S(=O)(=O)N2CCC3(CC2)CN(c2nc(Cc4ccc(F)c(F)c4)ns2)C3)cc1 [Cmpd033, 3-(3,4-Difluorobenzyl)-5-(7-((4-methoxyphenyl)sulfonyl)-2,7-diazaspiro[3.5]nonan-2-yl)-1,2,4-thiadiazole]",EC50,332 nM
"CCCCc1nsc(N2CC3(CCN(S(=O)(=O)c4ccc(OC)cc4)CC3)C2)n1 [Cmpd035, 3-Butyl-5-(7-((4-methoxyphenyl)sulfonyl)-2,7-diazaspiro[3.5]nonan-2-yl)-1,2,4-thiadiazole]",EC50,326 nM
"COc1ccc(S(=O)(=O)N2CCC3(CC2)CN(c2nc(Cc4cccc(C(F)(F)F)c4)ns2)C3)cc1 [Cmpd036, 5-(7-((4-Methoxyphenyl)sulfonyl)-2,7-diazaspiro[3.5]nonan-2-yl)-3-(3-(trifluoromethyl)benzyl)-1,2,4-thiadiazole]",EC50,499 nM
"CSc1ccc(S(=O)(=O)N2CCC3(CC2)CN(c2nc(Cc4ccc(F)cc4)ns2)C3)cc1 [Cmpd041, 3-(4-Fluorobenzyl)-5-(7-((4-(methylthio)phenyl)sulfonyl)-2,7-diazaspiro[3.5]nonan-2-yl)-1,2,4-thiadiazole]",EC50,177 nM
"CCOc1ccc(S(=O)(=O)N2CCC3(CC2)CN(S(=O)(=O)c2ccc(OC)cc2)C3)cc1 [Cmpd046, 7-((4-Ethoxyphenyl)sulfonyl)-2-((4-methoxyphenyl)sulfonyl)-2,7-diazaspiro[3.5]nonane]",EC50,3.3 nM
"COc1ccc(S(=O)(=O)N2CCC3(CC2)CN(c2nc4ccc(Cl)cc4s2)C3)cc1 [Cmpd052, 6-Chloro-2-(7-((4-methoxyphenyl)sulfonyl)-2,7-diazaspiro[3.5]nonan-2-yl)benzo[d]thiazole]",EC50,463 nM
"O=S(=O)(c1ccc(OC(F)F)cc1)N1CCC2(CC1)CN(c1nc3ccc(Cl)cc3s1)C2 [Cmpd054, 6-Chloro-2-(7-((4-(difluoromethoxy)phenyl)sulfonyl)-2,7-diazaspiro[3.5]nonan-2-yl)benzo[d]thiazole]",EC50,406 nM
"CSc1ccc(S(=O)(=O)N2CCC3(CC2)CN(c2nc4ccc(Cl)cc4s2)C3)cc1 [Cmpd055, 6-Chloro-2-(7-((4-(methylthio)phenyl)sulfonyl)-2,7-diazaspiro[3.5]nonan-2-yl)benzo[d]thiazole]",EC50,334 nM
"COc1ccc(S(=O)(=O)N2CCC3(CC2)CN(c2nc(Cc4ccc(F)cc4)ns2)C3)cc1 [Cmpd057, 3-(4-Fluorobenzyl)-5-(7-((4-methoxyphenyl)sulfonyl)-2,7-diazaspiro[3.5]nonan-2-yl)-1,2,4-thiadiazole]",EC50,1.9 nM
"COc1ccc(S(=O)(=O)N2CCC3(CC2)CN(c2nc(Cc4ccc(F)cc4)ns2)C3)cc1OC [Cmpd061, 5-(7-((3,4-Dimethoxyphenyl)sulfonyl)-2,7-diazaspiro[3.5]nonan-2-yl)-3-(4-fluorobenzyl)-1,2,4-thiadiazole]",EC50,320 nM
"COc1ccc(C)cc1S(=O)(=O)N1CCC2(CC1)CN(c1nc(Cc3ccc(F)cc3)ns1)C2 [Cmpd062, 3-(4-Fluorobenzyl)-5-(7-((2-methoxy-5-methylphenyl)sulfonyl)-2,7-diazaspiro[3.5]nonan-2-yl)-1,2,4-thiadiazole]",EC50,342 nM
"O=S(=O)(c1cccc(C(F)(F)F)c1)N1CCC2(CC1)CN(c1nc(Cc3ccc(F)cc3)ns1)C2 [Cmpd064, 3-(4-Fluorobenzyl)-5-(7-((3-(trifluoromethyl)phenyl)sulfonyl)-2,7-diazaspiro[3.5]nonan-2-yl)-1,2,4-thiadiazole]",EC50,1070 nM
"Cc1cccc(S(=O)(=O)N2CCC3(CC2)CN(c2nc(Cc4ccc(F)cc4)ns2)C3)c1 [Cmpd066, 3-(4-Fluorobenzyl)-5-(7-(m-tolylsulfonyl)-2,7-diazaspiro[3.5]nonan-2-yl)-1,2,4-thiadiazole]",EC50,399 nM
"CCc1ccc(S(=O)(=O)N2CCC3(CC2)CN(c2nc(Cc4ccc(F)cc4)ns2)C3)cc1 [Cmpd068, 5-(7-((4-Ethylphenyl)sulfonyl)-2,7-diazaspiro[3.5]nonan-2-yl)-3-(4-fluorobenzyl)-1,2,4-thiadiazole]",EC50,399 nM
"Cc1ccccc1S(=O)(=O)N1CCC2(CC1)CN(c1nc(Cc3ccc(F)cc3)ns1)C2 [Cmpd069, 3-(4-Fluorobenzyl)-5-(7-(o-tolylsulfonyl)-2,7-diazaspiro[3.5]nonan-2-yl)-1,2,4-thiadiazole]",EC50,182 nM
"O=S(=O)(c1cccc(F)c1)N1CCC2(CC1)CN(c1nc(Cc3ccc(F)cc3)ns1)C2 [Cmpd071, 3-(4-Fluorobenzyl)-5-(7-((3-fluorophenyl)sulfonyl)-2,7-diazaspiro[3.5]nonan-2-yl)-1,2,4-thiadiazole]",EC50,441 nM
"COc1ccc(OC)c(S(=O)(=O)N2CCC3(CC2)CN(c2nc(Cc4ccc(F)cc4)ns2)C3)c1 [Cmpd072, 5-(7-((2,5-Dimethoxyphenyl)sulfonyl)-2,7-diazaspiro[3.5]nonan-2-yl)-3-(4-fluorobenzyl)-1,2,4-thiadiazole]",EC50,212 nM
"O=S(=O)(c1cc(F)ccc1F)N1CCC2(CC1)CN(c1nc(Cc3ccc(F)cc3)ns1)C2 [Cmpd073, 5-(7-((2,5-Difluorophenyl)sulfonyl)-2,7-diazaspiro[3.5]nonan-2-yl)-3-(4-fluorobenzyl)-1,2,4-thiadiazole]",EC50,217 nM
"O=S(=O)(c1c(F)cccc1F)N1CCC2(CC1)CN(c1nc(Cc3ccc(F)cc3)ns1)C2 [Cmpd074, 5-(7-((2,6-Difluorophenyl)sulfonyl)-2,7-diazaspiro[3.5]nonan-2-yl)-3-(4-fluorobenzyl)-1,2,4-thiadiazole]",EC50,260 nM
"COc1cccc(S(=O)(=O)N2CCC3(CC2)CN(c2nc(Cc4ccc(F)cc4)ns2)C3)c1 [Cmpd076, 3-(4-Fluorobenzyl)-5-(7-((3-methoxyphenyl)sulfonyl)-2,7-diazaspiro[3.5]nonan-2-yl)-1,2,4-thiadiazole]",EC50,394 nM
"Cc1ccc(F)cc1S(=O)(=O)N1CCC2(CC1)CN(c1nc(Cc3ccc(F)cc3)ns1)C2 [Cmpd077, 5-(7-((5-Fluoro-2-methylphenyl)sulfonyl)-2,7-diazaspiro[3.5]nonan-2-yl)-3-(4-fluorobenzyl)-1,2,4-thiadiazole]",EC50,235 nM
"COc1ccccc1S(=O)(=O)N1CCC2(CC1)CN(c1nc(Cc3ccc(F)cc3)ns1)C2 [Cmpd080, 3-(4-Fluorobenzyl)-5-(7-((2-methoxyphenyl)sulfonyl)-2,7-diazaspiro[3.5]nonan-2-yl)-1,2,4-thiadiazole]",EC50,501 nM
"O=S(=O)(c1cc(F)cc(F)c1)N1CCC2(CC1)CN(c1nc(Cc3ccc(F)cc3)ns1)C2 [Cmpd083, 5-(7-((3,5-Difluorophenyl)sulfonyl)-2,7-diazaspiro[3.5]nonan-2-yl)-3-(4-fluorobenzyl)-1,2,4-thiadiazole]",EC50,375 nM
"COC(=O)c1cccc(S(=O)(=O)N2CCC3(CC2)CN(c2nc(Cc4ccc(F)cc4)ns2)C3)c1 [Cmpd084, Methyl 3-((2-(3-(4-fluorobenzyl)-1,2,4-thiadiazol-5-yl)-2,7-diazaspiro[3.5]nonan-7-yl)sulfonyl)benzoate]",EC50,383 nM
